The source of these data is PubChem BioAssay (NCI).

Common to all, as to test: NCI tumour cell line growth inhibition, 48 h
In test [1] the test system is A498 renal.
The test system of test [2] is UO-31 renal.
The subject of test [3] is OVCAR-4 ovarian.
The test system of test [4] is HCT-15 colon.
The subject of test [5] is CCRF-CEM leukemia.
The test system of test [6] is COLO 205 colon.
In test [7] the test system is SK-OV-3 ovarian.
Test [8] concerns SF-268 CNS.
The subject of test [9] is MOLT-4 leukemia.
The test system of test [10] is KM12 colon.
In test [11] the test system is T-47D breast.
The subject of test [12] is MDA-MB-435.
For test [13], the system named is NCI/ADR-RES ovarian.

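Where inhibition never reached the appropriate level, the endpoint shown equals the highest concentration tested. Otherwise, values were interpolated linearly from a five-concentration, 48-hour dose response in 96-well plates. Definition used: TGI = concentration required for complete inhibition of growth.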

Regarding `O=C(CSc1nnc(Cc2ccccc2)o1)Nc1ccc([N+](=O)[O-])cc1`, the TGI in test [1], in test [2], in test [3], in test [4], in [5] and in [6] was greater than 100 µM in each case. The TGI in test [7], in test [8], in test [9] and in test [10] was greater than 100 µM each time.

As for `O=C(Cc1ccccc1)NN1C(=O)C(Cl)C1c1ccc(O)cc1` (configuration not stated), the TGI in [2], in test [4], in test [5], in test [6], in test [7] and in test [8] was greater than 100 µM each time. The TGI in test [9] and in test [10] was greater than 100 µM throughout.

On to `CC(C)C(=O)/C=C/c1ccc(Br)cc1`, for which the TGI in test [1] is 28 µM; in test [2], 30.1 µM; in test [3], 63.3 µM; in [5], 21.5 µM; in test [6] it was 56.1 µM; in test [7], 49.6 µM. For the same compound, the TGI in [8] came out at 48.4 µM; in test [9], 95.9 µM; in test [10] it was 27.5 µM.

`CN(C)c1ccc(C2SCC(=O)N2NS(=O)(=O)c2cccc(C(=O)O)c2)cc1` (configuration not stated): the TGI in test [11], in test [2], in test [12], in test [4], in test [5] and in [6] was greater than 100 µM throughout. Further, the TGI in test [7], in [8], in [9] and in [10] was greater than 100 µM each time.

For `CC(=O)Nc1cc2c(s1)CCC1CC(=O)NN=C21` (configuration not stated), the TGI in [2], in test [3], in test [4], in test [5], in [6] and in test [8] was greater than 100 µM throughout. For the same compound, the TGI in test [9] and in test [10] was greater than 100 µM in each case.

In the case of `COC(=O)N/N=C(\C)C(CN1CCCCC1)C(C1=C(O)c2ccccc2OC1)c1ccccc1` (configuration not stated), the TGI in [1], in test [2], in [3], in [4], in test [5] and in test [6] was greater than 100 µM throughout. Besides, the TGI in [7], in test [8], in test [9] and in test [10] was greater than 100 µM in each case.

On to `C=C1C(=O)CC2C(=O)C(C)(O)CC/C=C(\C)C(=O)CC12` (configuration not stated), for which the TGI in test [1] was greater than 100 µM; in test [2], 21.1 µM; in [3] it was greater than 58.2 µM; in [12], greater than 55.7 µM; in [4] it was 37.7 µM; in test [5], 23.5 µM. Moreover, the TGI in test [6] is 27.4 µM; in test [13], greater than 100 µM; in test [7], greater than 100 µM; in test [8], greater than 76.1 µM; in test [9] it was 17.1 µM; in test [10], greater than 100 µM.

With `O=C1OC2(OC2c2ccccc2)c2ccccc21` (configuration not stated), the TGI in test [2], in test [4], in test [5], in test [6], in test [7] and in [8] was greater than 100 µM each time. Besides, the TGI in [9] and in test [10] was greater than 100 µM throughout.

On to `O=C1c2ccccc2C(=O)N1Cc1ccccc1-c1c2nc(c(-c3ccccc3CN3C(=O)c4ccccc4C3=O)c3ccc([nH]3)c(-c3ccccc3CN3C(=O)c4ccccc4C3=O)c3nc(c(-c4ccccc4CN4C(=O)c5ccccc5C4=O)c4ccc1[nH]4)C=C3)C=C2`, for which the TGI in test [1], in test [2], in test [3], in [4], in test [5] and in [6] was greater than 100 µM throughout. In addition, the TGI in [7], in [8], in test [9] and in [10] was greater than 100 µM throughout.

Regarding `Cc1ccc(S(=O)(=O)OCC(=O)O)cc1`, the TGI in test [1], in test [11], in test [2], in test [3], in test [4] and in test [5] was greater than 100 µM each time. Besides, the TGI in test [13], in test [8] and in test [9] was greater than 100 µM throughout.

For `CC1CCOc2ccc(cc2)C=Nc2ccc(cc2)CCc2ccc(cc2)N=Cc2ccc(cc2)OCC1` (configuration not stated), the TGI in test [1], in test [2], in [3], in [12], in test [4] and in test [5] was greater than 100 µM in each case. In addition, the TGI in test [6], in test [13], in test [8], in test [9] and in test [10] was greater than 100 µM each time.

In the case of `O=C(O)CC[N+]1=CCC(c2ccccc2)(c2ccccc2)O1`, the TGI in test [1], in test [11], in test [2], in [3], in [12] and in test [4] was greater than 100 µM in each case. Besides, the TGI in [6], in [7], in test [8] and in test [9] was greater than 100 µM throughout.

With `CN(C)Cc1cc(C(=O)/C=C/c2ccccc2Cl)cc(CN(C)C)c1O`, the TGI in [1] was 29.5 µM; in [2], 22.4 µM; in test [12], 26.3 µM; in test [4], 36 µM; in [5], 8.82 µM; in test [6], 18.5 µM. The TGI is 63.6 µM in test [13], 61.3 µM in test [8], 59.8 µM in test [9] and 20.3 µM in test [10].

With `CCOC(=O)c1ccc(N2C(=S)N(C(=O)c3ccccc3)C(=Nc3ccccc3)C2=Nc2ccccc2)cc1`, the TGI in test [2], in [12], in test [4], in [13], in test [7] and in test [8] was greater than 100 µM each time. The TGI in test [10] was greater than 100 µM.
